Changes are numbered by the printed parent chain. Values joined by “and” are separate entries in the source; they are usually repeats but may differ in a detail not shown here. Identical values can stand only once.
Experiments:
wild-type xls1R = target: T1, wild-type xls1R (Xenopus laevis, UniProt Q6DCU6); assay: Resistance of wild-type xlσ1R to chymotrypsin with added PRE084 (SDS-PAGE); type: biochemical; conditions: 1 mM PRE084 added to dialyzed protein before chymotrypsin treatment
T1 construct: The gene encoding the full-length wild-type σ1R from Xenopus laevis; hemagglutinin signal peptide (N); decahistidine (His10) (N); TEV protease recognition site (N); made in house; host or cells: Pichia pastoris GS115
T1 sequence (Q6DCU6 1-221): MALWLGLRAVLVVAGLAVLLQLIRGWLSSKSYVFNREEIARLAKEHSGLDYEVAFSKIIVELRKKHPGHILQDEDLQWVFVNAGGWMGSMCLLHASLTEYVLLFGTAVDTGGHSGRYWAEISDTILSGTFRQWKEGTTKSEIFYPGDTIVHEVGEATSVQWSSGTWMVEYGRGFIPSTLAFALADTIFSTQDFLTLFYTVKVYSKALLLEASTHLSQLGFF

xlσ1R-C203 = target: T2, xlσ1R-C203 (Xenopus laevis, UniProt Q6DCU6, Y203C); assay: ITC binding of PRE084 to xlσ1R-C203 before/after mPEG-Mal-5K modification
T2 construct: The gene encoding the full-length wild-type σ1R from Xenopus laevis; hemagglutinin signal peptide (N); decahistidine (His10) (N); TEV protease recognition site (N); made in house; host or cells: Pichia pastoris GS115
T2 sequence (Q6DCU6 1-221 Y203C): T1 sequence (Q6DCU6 1-221) with Y203C

xlσ1R-C179/C203 = target: T3, xlσ1R-C179/C203 (Xenopus laevis, UniProt Q6DCU6, L179C/Y203C); assay: ITC binding of PRE084 to xlσ1R-C179/C203 (disulfide oxidation / re-reduction)
T3 construct: The gene encoding the full-length wild-type σ1R from Xenopus laevis; hemagglutinin signal peptide (N); decahistidine (His10) (N); TEV protease recognition site (N); made in house; host or cells: Pichia pastoris GS115
T3 sequence (Q6DCU6 1-221 L179C/Y203C): T1 sequence (Q6DCU6 1-221) with L179C, Y203C

wild-type xlσ1R = target: T4, wild-type xlσ1R (Xenopus laevis, UniProt Q6DCU6); assay: ITC binding of PRE084 to wild-type xlσ1R before/after mPEG-Mal-5K modification; conditions: for WT stoichiometry, After modification: mPEG-Mal-5K; for Kd: WT Kd
T4 construct: The gene encoding the full-length wild-type σ1R from Xenopus laevis; hemagglutinin signal peptide (N); decahistidine (His10) (N); TEV protease recognition site (N); made in house; host or cells: Pichia pastoris GS115
T4 sequence (Q6DCU6 1-221): T1 sequence (Q6DCU6 1-221)

xls1R-C179 or xls1R-C203 = assay: mPEG-Mal-5K modification of xlσ1R cysteine mutants with added PRE084 (SDS-PAGE); type: biochemical, Xenopus laevis; conditions: 1 mM PRE084 added to dialyzed protein sample before mPEG-Mal-5K treatment
Experimental: Modification of wild-type and cysteine mutants of xlσ1R was performed with a bulky thiol-modifying reagent, methoxypolyethylene glycol maleimide 5000 (mPEG-Mal-5K)[33]. Briefly, the SEC-purified xlσ1R protein in the absence of β-mercaptoethanol were incubated with 1 mM mPEG-Mal-5K at room temperature for 1 h, and the modification reaction was stopped by addition of β-mercaptoethanol to a final concentration of 10 mM before another SEC purification to remove any free mPEG-Mal-5K. For the entrance blocking experiment, the modified xlσ1R-C179 or xlσ1R-C203 proteins were subjected to ITC or SDS-PAGE analysis. For the assessment of disulfide formation in xlσ1R-C179/C203, the modified sample was analyzed by SDS-PAGE. To reduce background modification and facilitate gel analysis, the only native cysteine (Cys91) was mutated to serine in all samples for the disulfide analysis. […]
would affect the modification efficiency (Response Fig. 1). However, extensive dialysis of the […]
1 to lane 5 for C179, and lane 3 to la ne 7 f o r C2 03). […]
modification efficiency (compare lane 1 to lane 2 for C179, and lane 3 to lane 4 for C203).
Therefore, it seems less likely that the ligand binding hindered mPEG -Ma l-5K modification. […]
before mPEG-Ma l-5K treatment were indicated above the gel. Protein samples were analyzed by SDS-PAGE and Coomassie blue staining. […]

xlσ1R-C179 = target: T5, xlσ1R-C179 (Xenopus laevis, UniProt Q6DCU6, L179C); assay: ITC binding of PRE084 to xlσ1R-C179 before/after mPEG-Mal-5K modification
T5 construct: The gene encoding the full-length wild-type σ1R from Xenopus laevis; hemagglutinin signal peptide (N); decahistidine (His10) (N); TEV protease recognition site (N); made in house; host or cells: Pichia pastoris GS115
T5 sequence (Q6DCU6 1-221 L179C): T1 sequence (Q6DCU6 1-221) with L179C

[1] = Dissolution of DIM-3C for crystal soaking; type: physicochemical; conditions: for soaking xlσ1R crystals
Description: Finally, it is worth mentioning another structural effort that we attempted to capture an open conformation of σ1R by soaking a ligand of extended length into the xlσ1R crystals. We anticipated that the ligand would extend through the ligand entrance and cause the receptor to adopt an open state. Such an extended ligand, N^1,N^3-bis(1-((R)-3-([1,1′-biphenyl]-4-yl)butyl)-piperidin-4-yl)malonamide (DIM-3C)[21], was kindly provided by Dr. Collina and Dr. Rossino for soaking the xlσ1R crystals. […] The density was readily and best modeled with an S1RA molecule. Its morpholine ring sits between α4 and α5 and is surrounded by residues 179, 203, and Leu97, whereas the rest of the ligand remains outside of the receptor, possibly representing an entering (or exiting) pose for the ligand. Meanwhile, due to the relatively low resolution (3.80 Å) of the xlσ1RC179/C203-S1RA structure, this extra density needs to be interpreted with caution, and we used it only for supplementary discussion.

[2] = ITC, Mean of repeats (source data Fig. 4e)
[3] = equilibrium dissociation constant (Kd)
[4] = ITC, individual repeats (source data Fig. 4e)

## O=C(OCCN1CCOCC1)C1(c2ccccc2)CCCCC1 [PRE084, [2-(morpholin-4-yl)ethyl] 1-phenylcyclohexane-1-carboxylate]
wild-type xls1R
  effect of added ligand on chymotrypsin digestion: no appreciable effect
xlσ1R-C203; C203 Kd, After modification
  Kd: 1500 nM and 1730 nM and 1620 nM
xlσ1R-C203; C203 Kd, Before modification
  Kd: 971 nM and 977 nM and 1030 nM
xlσ1R-C203; [2]
  C203 stoichiometry, Before modification: 0.8717
xlσ1R-C203; [3]
  Kd: 1610 nM and 990 nM
xlσ1R-C179/C203; C179/C203 Kd, After oxidation
  Kd: 7810 nM and 5080 nM and 7240 nM
xlσ1R-C179/C203; C179/C203 Kd, Before oxidation
  Kd: 960 nM and 710 nM and 380 nM and 510 nM and 850 nM
xlσ1R-C179/C203; C179/C203 Kd, Re-reduction
  Kd: 1760 nM and 1390 nM and 1450 nM and 1570 nM
xlσ1R-C179/C203; [3]
  Kd: 680 nM and 6710 nM and 1540 nM
wild-type xlσ1R
  change of affinity (Kd) after mPEG-Mal-5K treatment: changed little
wild-type xlσ1R; [2]
  WT stoichiometry, Before modification: 0.8695
  WT stoichiometry, After modification: 0.9143
wild-type xlσ1R; [4]
  WT stoichiometry, Before modification: 0.883 and 0.874 and 0.993 and 0.728
  WT stoichiometry, After modification: 0.933 and 0.896 and 0.874 and 1.040 and 0.883 and 0.860
wild-type xlσ1R; ITC, modification of native Cys91
  change of stoichiometry (number of available binding sites per protomer) after mPEG-Mal-5K treatment: changed little
wild-type xlσ1R; After modification
  Kd: 1.22 µM and 1.29 µM and 1.23 µM and 1.08 µM (2×) and 1.12 µM
wild-type xlσ1R; Before modification
  Kd: 1120 nM and 1210 nM and 871 nM and 1100 nM
xls1R-C179 or xls1R-C203
  effect of added ligand on mPEG-Mal-5K modification efficiency: no appreciable effect
xlσ1R-C179; C179 Kd, After modification
  Kd: 1910 nM and 2010 nM and 1930 nM and 1970 nM
xlσ1R-C179; C179 Kd, Before modification
  Kd: 972 nM and 990 nM and 1090 nM and 1040 nM
xlσ1R-C179; [3]
  Kd: 1020 nM and 1950 nM

## C[C@H](CCN1CCC(NC(=O)CC(=O)NC2CCN(CC[C@@H](C)c3ccc(-c4ccccc4)cc3)CC2)CC1)c1ccc(-c2ccccc2)cc1 [DIM-3C, N^1,N^3-bis(1-((R)-3-([1,1′-biphenyl]-4-yl)butyl)-piperidin-4-yl)malonamide]
[1]
  solubility: could only be dissolved with organic solvents such as methanol and dimethyl sulfoxide

— publication PMC8913746, “An open-like conformation of the sigma-1 receptor reveals its ligand entry pathway” (Nature Communications, 2022)
